Measurements from patent US11351218B2, “Composition for preventing or treating glioblastoma comprising Platycodon grandiflorum A. De Candolle, Scutellaria baicalensis, Phellodendron amurense Ruprecht or Rubus coreanus” (University-Industry Cooperation Group of Kyung Hee …, priority 2019, dated 2022).
Residues, ends and D or L forms follow the SMILES beside them. *: point of attachment. Cbz = O=C(OCc1ccccc1)*; CH2F = FC*

How the values were obtained:
cathepsin B and D = experiment: Immunoblot of cathepsin B and D processing in GBM cells; type: cell-based, human; settings: addition of MβCD 100 μM to PD 10 μM-treated cells
Method: Immunoblot analyses for the processing of endogenous CTSB and CTSD are shown (upper, immature form/lower, mature form of CTSB and CTSD). GAPDH was used as a loading control.
(§1) Cells treated with the concentrations and materials described in FIGS. 1-3B, 7, 8, 10, 13, 16, 18, and 20 were lysed in buffer containing 20 mM Tris-HCl (pH 7.5), 150 mM NaCl, 1 mM EDTA, 1 mM Na2EDTA, 1 mM EGTA, 1% NP-40, 1% sodium deoxycholate, 1 mM Na3VO4, 1 mM MPI, 1 mM PMSF, and PI cocktails for 15 to 20 minutes on ice. Cell lysates were separated by SDS-PAGE and transferred to nitrocellulose membranes. Immunodetection was performed with the following primary antibodies: rabbit anti-LC3B, rabbit anti-cathepsin B, rabbit-anti GAPDH (Cell Signaling Technology, Danvers, Mass.), mouse anti-SQSTM1/p62, and goat anti-cathepsin D (Santa CruzKPL, Gaithersburg, Md., USA) were incubated at room temperature for 1 hour. The protein bands were detected with ECL western Blotting Substrate (Thermo Fisher Scientific, Waltham, Mass., USA).
To confirm whether PD functions as an autophagy inhibitor, the effects of PD on lysosomal proteases, cathepsin B and D, were examined Autophagy is a lysosome-mediated and self-degradative process that requires lysosomal cysteine proteases known as cathepsins. Since pro-cathepsins are cleaved into a mature form in lysosomes, the 33 kD active cleaved form of cathepsins has been commonly used as a marker for lysosomal activity. As can be confirmed in FIG. 13, while the mature forms of cathepsin B and D proteins were decreased, immature forms of those protein were increased after PD treatment in U87MG and U373MG cells, implying that PD suppresses a lysosomal function by downregulating the lysosomal proteolytic activity.

U87MG and U373MG cells [1] = experiment: WST1 cell viability assay, GBM cells; type: cell-based, human
Method: FIGS. 6A and 6B show the results that PD induces a decrease in cell viability and vacuole formation. […] Data shown represent the means of quintuplicate measurements which were repeated three times. The results are presented as a percentage of control (means±SD).
Cell cytotoxicity was assessed by WST1 assay. U87 and U373 cells were each seeded in a 96-well plate (5×10^3 cells/well) and treated with different concentrations of platycodin D (PD). Then, cells were incubated with a WST1 reagent (Dogen, Seoul, Korea) for 2 hours before reading the plate. Absorbance was measured at 450 nm using an ELISA reader (Versa Max, Molecular Devices, Sunnyvale, Calif., USA).

U87MG and U373MG cells [2] = experiment: Clonogenic assay, GBM cells; type: cell-based, human; settings: co-treatment MβCD 100 μM with PD 10 μM or 20 μM, 7 days
Method: FIGS. 19A and 19B show the results that MβCD restores PD-mediated decrease in cell viability. […] Data shown represent the means of quintuplicate measurements which were repeated three times. The results are presented as a percentage of control (means±SD).
Approximately 2×10^3 cells were seeded into each 6-well plate and then treated as described in FIG. 19. After 7 days, the cells were washed with PBS and stained with 0.5% crystal violet.
Furthermore, as can be confirmed in FIG. 19B, a colony formation assay was performed to confirm the effects of MβCD on PD-mediated GBM cell death.

U87MG and U373MG cells [3] = experiment: Cholesterol cell-based detection assay (filipin III staining) in GBM cells; parameters: species or system human
Method: (§2) FIGS. 15A and 15B show the results that PD promotes accumulation of cholesterol in lysosomes. Cells were treated with DMSO, PD (10 μM), or U18666a (1 μM) for 24 hours. […] Total cholesterol levels are expressed in cholesterol (μg) per protein (mg) of cell lysate and are shown as means±SD from two independent experiments.
Cells grown on coverslips were treated with the materials. Then, the cells were fixed with 4% PFA at room temperature for 10 minutes. The solution of Filipin III (Cayman) was added for staining of […] cholesterol and the samples were incubated in a dark room for 30 minutes. The images were examined under a Zeiss laser confocal microscope.
The present inventors concluded that PD inhibits the maturation of autophagosome into autolysosomes by inhibiting lysosomal degradation and an autophagosome-lysosome fusion in GBM cells. […] To examine whether the defect in the autophagosome-lysosome fusion by PD is due to altered intracellular cholesterol levels, the PD-treated GBM cells were stained with filipin-III, which is a fluorescent dye that binds to cholesterol. […] As can be confirmed in FIG. 14A, this filipin-III staining pattern is very similar to that found in GBM cells treated with U18666A, implying that PD blocks cholesterol release from lysosome and accumulates cholesterol in lysosomes.

U87MG and U373MG cells [4] = experiment: LysoTracker assay with GFP-LC3B (autophagosome-lysosome fusion) in GBM cells; type: cell-based, human; settings: co-treatment MβCD 100 μM and PD 10 μM, 48 hours
Text: […] Then, cells were stained with LysoTracker (red) and DAPI (blue). The merged images show an overlap between GFP-LC3 and LysoTracker (yellow). The panels on the right are higher-magnification images of the boxed regions.
Cultured cells seeded in plates with microscope coverslips were transfected with a pGFP-LC3B plasmid using Lipofectamine 3000 (Thermo Fisher Scientific) according to the manufacturer's instructions. After the transfection, the cells were fixed with 4% paraformaldehyde (PFA) in phosphate-buffered saline (PBS) at room temperature for 10 minutes. The images were examined under a laser confocal microscope (Zeiss, Oberkochen, Baden-Wurttemberg, Germany).
To stain acidic compartments, 50 nM LysoTrackerRedDND-99 (Thermo Fisher Scientific) was added to a medium at 37° C. with 5% CO2 for 30 minutes prior to fixation. The nuclei were labeled with 4,6-diamidino-2-phenylindole (DAPI, Sigma). The slides were finally mounted using a Faramount mounting medium (Dako, Glostrup, Denmark). The images were examined under a Zeiss laser confocal microscope.
Experimental Result 11. PD Blocks Fusion of Autophagosomes with Lysosomes. Since p62 was accumulated in autophagosomes by PD treatment, it was speculated that PD may cause the lysosomal dysfunction like bafilomycin A1, which inhibits vacuolar H^+-ATPase (V-ATPase)-dependent lysosomal acidification and blocks autophagosome-lysosome fusion. Thus, the PD-treated cells with LysoTracker Red, which is a marker for acidic compartment including lysosomes was stained to examine the colocalization of GFP-LC3B.

LC3B and SQSTM1/p62 = experiment: Immunoblot of LC3B and SQSTM1/p62 in GBM cells (U87MG and U373MG); type: cell-based, human; settings: combined treatment MβCD 100 μM and PD 10 μM
Method: FIGS. 2A and 2B show the results that an extract of Platycodon grandiflorum (PG) increases the levels of LC3-II and p62. […] GAPDH was used as a loading control.
FIGS. 3A to 3C show the results that PD inhibits autophagic flux in GBM cells. […] The expression of LC3B and SQSTM1 was confirmed by immunoblot analysis. […] GAPDH was used as a loading control.
The human glioma cell lines, U87MG and U373MG, were cultured respectively in RPMI-1640 (Welgene) and DMEM (Welgene, Daegu, Korea) supplemented with 10% fetal bovine serum (FBS, JR Scientific) and 1% antibiotics (Ab, Welgene). All cultures were maintained at 37° C. in a humidified incubator containing 5% CO2.
as §1

Ax1 = experiment: Western blot of Ax1 expression after natural compounds, U87MG and U373MG cells; type: cell-based, human; settings: varying concentrations, 48 hours
Method: Cells were washed with PBS and dissolved using a RIPA buffer (150 mM NaCl, 1% NP-40, 0.5% DOC, 0.1% SDS, 50 mM Tris (pH 8.0), 1 mM EDTA, 1 mM PMSF, 1 mM NaF, 1 mM Na3PO4, 1 μL aprotinin, leupeptin, and pepstatin), and proteins were isolated by centrifugation at 3,000× g for 20 minutes. An equal amount (20 μg) of each of the proteins was separated by 10% sodium dodecyl sulfate-polyacrylamide gel electrophoresis (SDS-PAGE) and the proteins separated using the Trans-blot unit were transferred to a nitrocellulose (NC) membrane. The membrane to which proteins were transferred was blocked with 5% non-fat dry milk (Tris buffered saline (TBS-T) containing 0.1% Tween-20) at room temperature for 1 hour, and primary antibodies, which were diluted at a 1:1,000 concentration, were allowed to react the proteins at 4° C. for 16 hours. After washing with PBS, the resultant was allowed to react with secondary antibodies, which were diluted at a 1:5,000 concentration, at room temperature for 1 hour. A Pierce ECL Western Blotting Substrate, which also underwent a washing process, was coated onto the membrane and allowed to react in a dark room with a film, and thereby, specific protein bands were confirmed. […]

U87MG and U373MG cells [5] = experiment: Cholesterol measurement (total cholesterol assay kit) in GBM cells; type: cell-based, human; settings: PD 10 μM or U18666a 1 μM, 24 hours
Method: as §2
Cells treated as described above were processed using a total cholesterol assay kit (STA384, Cell Biolabs) according to the manufacterer's instructions. Cholesterol esters and free cholesterol were quantified by homogenizing 10^6 cells extracted from a 200 μL mixture of chloroform: isopropanol: NP-40 (7:11:0.1). After centrifugation of the extract at 15,000× g for 10 minutes, the organic phase was collected and evaporated at 50° C. The extract was resuspended in 200 μL of a 1× cholesterol assay diluent prior to analysis. The colorimetric signal was analyzed using an ELISA reader (Versa Max, Molecular Devices, Sunnyvale, Calif., USA) at 540 nm. Cellular cholesterol results were reported as μg of cholesterol per mg of cell protein.

normal astrocytes = experiment: BODIPY FL LDL uptake assay, normal astrocytes; type: cell-based, human; settings: PD 10 μM or U18 1 μM, 24 hours
Method: (§3) Cells were treated with DMSO, PD (10 μM), or U18 (1 μM) for 24 hours and subsequently loaded with BODIPY™ FL LDL. BODIPY-LDL uptake was visualized by confocal microscopy. Nuclei were stained with DAPI (blue). Quantification shown on the right graph represents a relative fold change from three independent experiments±SD.
(§4) Cells seeded on coverslips were treated with the materials and then the culture medium was replaced with BODIPY™ FL LDL (Thermo Fisher Scientific) at a working concentration of 5 μg/mL in a medium. The cells were additionally incubated at 37° C. for 1 hour. The degree of LDL uptake was measured using a Zeiss laser confocal microscope.
(§5) Based on the previous study results of the present inventors that PD increases cell surface LDLR expression and accumulate cholesterol within lysosomes, whether PD can increase the uptake of exogenous LDL was examined Cells pretreated with PD or U18666A were incubated with BODIPY FL-labeled LDL particles for 1 hour and the LDL uptake was observed by a confocal microscope. Upon analysis of these cells, it was observed that PD caused about a 6-fold increase in LDL uptake and it was a level similar to that detected in the U18666A-treated cells.

U87MG and U373MG cells [6] = experiment: BODIPY FL LDL uptake assay, GBM cells; type: cell-based, human; settings: U18 1 μM 24 hours, BODIPY FL LDL 1 hour
Method: as §3, §4, §5

cell-surface LDLR [7] = experiment: Cell surface LDLR analysis by flow cytometry, normal astrocytes; type: cell-based, human; settings: PD 10 μM or U18666a 1 μM, 24 hours
Method: (§6) FIGS. 16A to 16D show the results that PD increases the expression of LDLR on cell surfaces in GBM cells. […] GAPDH was used as a loading control. […] GAPDH was used as a loading control.
(§7) Cells treated as described in FIG. 16 were separated from plates and resuspended in PBS. After washing with 1% BSA in PBS, the cells were incubated with a primary antibody against human LDLR (Abcam) for 30 minutes. Then, the cells were washed before incubation with an Alexa-Fluor 488-conjugated secondary antibody (Invitrogen) for 30 minutes. The stained cells were washed and resuspended. Fluorescence was analyzed by a FACScalibur flow cytometer (Becton Dickinson, San Jose, Calif., USA) using CellQuest™ software.
(§8) Brain is the most cholesterol-rich organ of the body, containing about 20% of total body cholesterol. […] As can be confirmed in FIG. 16A, in consistent with these reports, the LDLR protein level was markedly elevated in U87MG and U373MG cells relative to normal human astrocytes. […] Then, the cell surface expression of LDLR was confirmed by flow cytometry.

LDLR = experiment: Immunoblot of LDLR in U87MG, U373MG cells and normal astrocytes; type: cell-based, human; settings: PD 5 μM and 10 μM or U18666a 1 μM, 24 hours; U87MG, U373MG and normal astrocytes
Method: as §6, §1, §8

cell-surface LDLR [8] = experiment: Cell surface LDLR analysis by flow cytometry, GBM cells; type: cell-based, human; settings: PD 10 μM or U18666a 1 μM, 24 hours
Method: as §6, §7, §8

methyl β-cyclodextrin [MβCD, reference compound]
activity of cathepsin B (cathepsin B and D): recovered activity
viability of GBM cells (U87MG and U373MG cells [1]; combined treatment MβCD 100 μM and PD 10 μM, 72 hours): significantly restored the viability
colony-forming ability (U87MG and U373MG cells [2]): almost completely recovered
accumulated cholesterol in lysosomes (U87MG and U373MG cells [3]; PD 10 μM 24 hours, then MβCD 100 μM 48 hours): successfully depleted
colocalization of GFP-LC3B puncta with LysoTracker Red fluorescence (U87MG and U373MG cells [4]): remarkable increase
changes in LC3-II and p62 levels increased by PD alone (LC3B and SQSTM1/p62): almost completely restored

O=C(O)[C@H]1O[C@@H](Oc2cc3oc(-c4ccccc4)cc(=O)c3c(O)c2O)[C@H](O)[C@@H](O)[C@@H]1O [baicalin]
expression of Ax1 (Ax1): reduced the expression of Ax1

COC(=O)C[C@H](NC(=O)[C@H](C)NC(=O)[C@@H](NC(=O)OCc1ccccc1)C(C)C)C(=O)CF [z-VAD-fmk, reference compound] (Cbz-Val-Ala-Asp(OMe)-CH2F)
cell viability, co-treatment vs PD-alone (U87MG and U373MG cells [1]; z-VAD-fmk 50 μM with PD 10 μM and 20 μM, 48 hours): little impact

CCN(CC)CCO[C@H]1CC[C@@]2(C)C(=CC[C@@H]3[C@@H]2CC[C@]2(C)C(=O)CC[C@@H]32)C1 [U18666A, reference compound]
free cholesterol levels (U87MG and U373MG cells [5]): significant increase
LDL uptake (normal astrocytes): less effective
LDL uptake level compared with PD (U87MG and U373MG cells [6]): similar
cellular cholesterol distribution (filipin-III staining) (U87MG and U373MG cells [3]; PD 10 μM or U18666a 1 μM, 24 hours): very similar
changes in peak shift (cell surface LDLR) (cell-surface LDLR [7]): very negligible
LDLR expression (LDLR): increased the LDLR expression
cell surface expression of LDLR (cell-surface LDLR [8]): shift of the FL-1 histogram peak toward right
